Data published in article doi:10.1101/2023.04.18.537371v1 (bioRxiv, 2023).
Peptide text beside a SMILES is read from it.

Key:
[1] = system: Caco-2 cell monolayers; test: Bidirectional permeability and efflux in Caco-2 cells; type: in vitro ADME
[2] = as above; type: in vitro ADME; conditions: human
[3] = In vitro protein binding, rapid equilibrium dialysis; type: in vitro ADME; conditions: SD, rat, plasma
[4] = system: CYP3A4; test: CYP induction assay in human hepatocytes; type: in vitro ADME; conditions: cryopreserved human hepatocytes, three donors, 0.100 to 15.0 μM, 48 h, 37°C
[5] = In vitro protein binding, rapid equilibrium dialysis; type: in vitro ADME; conditions: beagle, dog, plasma
[6] = molecular target: T1, CYP2C19 (Homo sapiens, UniProt P33261); test: CYP450 inhibition assay; type: in vitro ADME
[7] = molecular target: OAT3 (Homo sapiens, UniProt Q8TCC7); test: Transporter inhibition in HEK293 cells; type: in vitro ADME
[8] = Excretion study in SD rats following single subcutaneous administration; type: in vivo, SD rat; conditions: for Accumulative Dose Recovery: 0 h, n=3, mean
[9] = Plasma stability; type: in vitro ADME, beagle dog
[10] = molecular target: T1, CYP2C19; test: CYP time-dependent inhibition assay; type: in vitro ADME
[11] = Tissue distribution in SD rats after single subcutaneous injection; type: in vivo, SD rat
[12] = system: cynomolgus monkey hepatocytes; test: Hepatocyte stability; type: in vitro ADME; conditions: 1.00 μM
[13] = 2.00 μM, with 10.0 μM GF120918, Caco-2, 120 min
[14] = 10.0 μM, with 10.0 μM GF120918, Caco-2, 120 min
[15] = 10.0 μM, without GF120918, Caco-2, 120 min
[16] = 100 μM, with 10.0 μM GF120918, Caco-2, 120 min
[17] = 100 μM, without GF120918, Caco-2, 120 min
[18] = male, SD, rat, urine, sc, 10 mg/kg
[19] = male, Sprague-Dawley, rat, bile, sc, 10 mg/kg
[20] = male, Sprague-Dawley, rat, feces, sc, 10 mg/kg
[21] = male, Sprague-Dawley, rat, urine + feces, sc, 10 mg/kg
[22] = male, Sprague-Dawley, rat, urine, sc, 10 mg/kg
[23] = kidney, male SD rats, SC 10 mg/kg single
[24] = large intestine, male SD rats, SC 10 mg/kg single
[25] = liver, male SD rats, SC 10 mg/kg single
[26] = lung, male SD rats, SC 10 mg/kg single
[27] = male, SD, rat, fat, sc, 10 mg/kg
[28] = male, SD, rat, heart, sc, 10 mg/kg
[29] = male, SD, rat, kidney, sc, 10 mg/kg
[30] = male, SD, rat, large intestine, sc, 10 mg/kg
[31] = male, SD, rat, liver, sc, 10 mg/kg
[32] = male, SD, rat, lung, sc, 10 mg/kg
[33] = male, SD, rat, muscle, sc, 10 mg/kg
[34] = male, SD, rat, plasma, sc, 10 mg/kg
[35] = male, SD, rat, small intestine, sc, 10 mg/kg
[36] = male, SD, rat, spleen, sc, 10 mg/kg
[37] = male, SD, rat, stomach, sc, 10 mg/kg
[38] = muscle, male SD rats, SC 10 mg/kg single
[39] = small intestine, male SD rats, SC 10 mg/kg single
[40] = spleen, male SD rats, SC 10 mg/kg single
[41] = stomach, male SD rats, SC 10 mg/kg single

T1 sequence (P33261 whole entry): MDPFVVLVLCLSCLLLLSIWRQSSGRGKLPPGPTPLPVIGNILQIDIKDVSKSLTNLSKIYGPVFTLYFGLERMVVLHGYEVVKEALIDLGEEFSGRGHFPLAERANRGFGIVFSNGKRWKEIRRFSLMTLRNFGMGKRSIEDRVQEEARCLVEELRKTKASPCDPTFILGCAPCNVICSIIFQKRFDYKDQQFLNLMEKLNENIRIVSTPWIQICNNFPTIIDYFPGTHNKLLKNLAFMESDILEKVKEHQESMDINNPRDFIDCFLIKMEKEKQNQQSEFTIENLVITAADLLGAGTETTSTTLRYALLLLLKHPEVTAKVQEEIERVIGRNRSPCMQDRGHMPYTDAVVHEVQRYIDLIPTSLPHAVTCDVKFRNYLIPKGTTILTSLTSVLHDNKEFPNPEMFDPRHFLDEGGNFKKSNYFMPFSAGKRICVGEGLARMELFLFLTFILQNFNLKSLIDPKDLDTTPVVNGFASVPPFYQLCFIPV
Chain of OAT3 (Q8TCC7 whole entry): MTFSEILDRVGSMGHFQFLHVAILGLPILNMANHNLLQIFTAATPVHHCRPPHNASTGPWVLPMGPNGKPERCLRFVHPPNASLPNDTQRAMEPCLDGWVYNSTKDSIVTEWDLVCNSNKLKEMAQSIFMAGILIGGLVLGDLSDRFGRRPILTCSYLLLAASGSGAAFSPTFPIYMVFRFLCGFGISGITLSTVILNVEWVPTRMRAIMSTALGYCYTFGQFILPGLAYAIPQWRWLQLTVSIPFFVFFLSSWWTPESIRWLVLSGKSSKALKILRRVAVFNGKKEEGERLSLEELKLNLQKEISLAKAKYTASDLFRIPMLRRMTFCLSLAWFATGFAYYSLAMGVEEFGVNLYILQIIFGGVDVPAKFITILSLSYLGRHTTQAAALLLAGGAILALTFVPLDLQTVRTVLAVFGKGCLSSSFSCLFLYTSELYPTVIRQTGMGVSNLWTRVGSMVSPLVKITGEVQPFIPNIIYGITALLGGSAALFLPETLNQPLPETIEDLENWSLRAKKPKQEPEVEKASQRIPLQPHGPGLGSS

CC(C)[C@@H](NC(=O)[C@H](N)Cc1ccc(O)cc1)C(=O)N[C@H](CC(=O)O)C(=O)N[C@H](CCCCN)C(=O)N[C@H](CCCNC(=N)N)C(=O)O [FC-12738, (D-Tyr)-(D-Val)-(D-Asp)-(D-Lys)-(D-Arg)] (HELM PEPTIDE1{[dY].[dV].[dD].[dK].[dR]}$$$$V2.0)
Mean %Solution Recovery A to B [1, 13]: <92.9%
Mean %Solution Recovery B to A [1, 13]: <96.5%
Mean %Solution Recovery A to B [1, 14]: 89.9%
Mean %Solution Recovery B to A [1, 14]: 96.5%
Mean %Solution Recovery A to B [1, 15]: 90.2%
Mean %Solution Recovery B to A [1, 15]: 100.5%
Efflux Ratio (ERi) [1, 16]: 1.23
Mean %Solution Recovery A to B [1, 16]: 86.9%
Mean %Solution Recovery B to A [1, 16]: 97.0%
Mean %Solution Recovery A to B [1, 17]: 89.1%
Mean %Solution Recovery B to A [1, 17]: 95.3%
Permeability across the Caco-2 cell monolayer (conclusion) ([1]; 2.00, 10.0 and 100 μM): low permeable
efflux ratio at 120 min, 10 μM ([2]; Caco-2): 0.88
efflux ratio at 120 min, 100 μM ([2]; Caco-2): 1.24
efflux ratio at 120 min, 10 μM ([2]; Caco-2, with GF120918 10.0 μM): 1.13
fraction unbound at 6 h, 0.2 µM [3]: 0.482
fraction unbound at 6 h, 2 µM [3]: 0.443
fraction unbound at 6 h, 10 µM [3]: 0.493
Induction of CYP3A4 (enzyme activity and gene expression) [4]: not considered as an inducer
fraction unbound at 6 h, 0.2 µM [5]: 0.492
fraction unbound at 6 h, 2 µM [5]: 0.461
fraction unbound at 6 h, 10 µM [5]: 0.691
IC50 [6]: > 100 µM
IC50 [7]: > 100 µM
Accumulative Dose Recovery ([8]; bile, male bile-duct-cannulated SD rats, SC 10 mg/kg single): 0.00%
Accumulative Dose Recovery ([8]; feces, male intact SD rats, SC 10 mg/kg single): 0.00%
Tolerability / adverse effects in-life ([8]; male SD rats, SC 10 mg/kg single, excretion study): No adverse effect was observed
dose excreted at 96 h [8, 18]: 86.4%
dose excreted at 120 h [8, 18]: 86.6%
dose excreted at 144 h [8, 18]: 86.7%
dose excreted at 4 h [8, 19]: 0.284%
dose excreted at 12 h [8, 19]: 0.314%
dose excreted at 24 h [8, 19]: 0.324%
dose excreted at 48 h [8, 19]: 0.331%
dose excreted at 72 h [8, 19]: 0.336%
dose excreted at 4 h [8, 20]: 0.00168%
dose excreted at 8 h [8, 20]: 0.00239%
dose excreted at 24 h [8, 20]: 1.74%
dose excreted at 48 h [8, 20]: 2.08%
dose excreted at 72 h [8, 20]: 2.14%
dose excreted at 96 h [8, 20]: 2.16%
dose excreted at 120 h [8, 20]: 2.18%
dose excreted at 144 h [8, 20]: 2.19%
dose excreted at 168 h [8, 20]: 2.19%
dose excreted at 4 h [8, 21]: 56.2%
dose excreted at 8 h [8, 21]: 78.2%
dose excreted at 24 h [8, 21]: 85.8%
dose excreted at 48 h [8, 21]: 88.2%
dose excreted at 72 h [8, 21]: 88.5%
dose excreted at 96 h [8, 21]: 88.6%
dose excreted at 120 h [8, 21]: 88.7%
dose excreted at 144 h [8, 21]: 88.9%
dose excreted at 168 h [8, 21]: 88.9%
dose excreted at 4 h [8, 22]: 56.2%
dose excreted at 8 h [8, 22]: 78.2%
dose excreted at 24 h [8, 22]: 84%
dose excreted at 48 h [8, 22]: 86.1%
dose excreted at 72 h [8, 22]: 86.4%
dose excreted at 168 h [8, 22]: 86.7%
Accumulative Dose Recovery ([8]; total (urine + feces), male intact SD rats, SC 10 mg/kg single): 0.00%
Accumulative Dose Recovery ([8]; urine, male intact SD rats, SC 10 mg/kg single): 0.00%
half-life ([9]; beagle dog plasma, 2.00 μM, 37.0 °C, up to 120 min): > 372.7 min
remaining at 10 min, 2 μM ([9]; beagle, dog, plasma): 106%
remaining at 0.5 h, 2 μM ([9]; beagle, dog, plasma): 105%
remaining at 1 h, 2 μM ([9]; beagle, dog, plasma): 106%
remaining at 2 h, 2 μM ([9]; beagle, dog, plasma): 101%
IC50 [10]: > 100 µM
Time-dependent inhibition of CYP2C19 ([10]; cutoff IC50 shift >= 1.5-fold, 30 min pre-incubation ± NADPH): no time-dependent inhibition
AUC0-last [11, 23]: 135000 ng·h/g
Cmax [11, 23]: 28500 ng/g
Tmax [11, 23]: 30 min
AUC0-last [11, 24]: 4040 ng·h/g
Cmax [11, 24]: 2150 ng/g
Tmax [11, 24]: 30 min
AUC0-last [11, 25]: 4190 ng·h/g
Cmax [11, 25]: 1270 ng/g
Tmax [11, 25]: 30 min
AUC0-last [11, 26]: 6840 ng·h/g
Cmax [11, 26]: 5330 ng/g
Tmax [11, 26]: 30 min
Tolerability / adverse effects in-life ([11]; male SD rats, SC 10 mg/kg single, tissue distribution study): No adverse effect was observed
tissue level at time at 0.5 h ([11]; male, SD, rat, brain, sc, 10 mg/kg): 128 ng/g
tissue level at time at 0.5 h [11, 27]: 1070 ng/g
tissue level at time at 2 h [11, 27]: 103 ng/g
tissue level at time at 0.5 h [11, 28]: 2150 ng/g
tissue level at time at 2 h [11, 28]: 365 ng/g
tissue level at time at 0.5 h [11, 29]: 28500 ng/g
tissue level at time at 2 h [11, 29]: 17300 ng/g
tissue level at time at 8 h [11, 29]: 14300 ng/g
tissue level at time at 0.5 h [11, 30]: 2150 ng/g
tissue level at time at 2 h [11, 30]: 430 ng/g
tissue level at time at 8 h [11, 30]: 226 ng/g
tissue level at time at 0.5 h [11, 31]: 1270 ng/g
tissue level at time at 2 h [11, 31]: 616 ng/g
tissue level at time at 8 h [11, 31]: 269 ng/g
tissue level at time at 0.5 h [11, 32]: 5330 ng/g
tissue level at time at 2 h [11, 32]: 752 ng/g
tissue level at time at 8 h [11, 32]: 109 ng/g
tissue level at time at 0.5 h [11, 33]: 1490 ng/g
tissue level at time at 2 h [11, 33]: 191 ng/g
tissue level at time at 8 h [11, 33]: 46.4 ng/g
AUC(0-t) [11, 34]: 14400 ng·h/mL
Cmax [11, 34]: 14200 ng/mL
Tmax [11, 34]: 30 min
level at 0.5 h [11, 34]: 14200 ng/mL
level at 2 h [11, 34]: 1790 ng/mL
level at 8 h [11, 34]: 5.04 ng/mL
tissue level at time at 0.5 h [11, 35]: 2060 ng/g
tissue level at time at 2 h [11, 35]: 775 ng/g
tissue level at time at 8 h [11, 35]: 188 ng/g
tissue level at time at 0.5 h [11, 36]: 1490 ng/g
tissue level at time at 2 h [11, 36]: 345 ng/g
tissue level at time at 8 h [11, 36]: 239 ng/g
tissue level at time at 0.5 h [11, 37]: 3370 ng/g
tissue level at time at 2 h [11, 37]: 555 ng/g
tissue level at time at 8 h [11, 37]: 96.7 ng/g
AUC0-last [11, 38]: 1930 ng·h/g
Cmax [11, 38]: 1490 ng/g
Tmax [11, 38]: 30 min
AUC0-last [11, 39]: 4970 ng·h/g
Cmax [11, 39]: 2060 ng/g
Tmax [11, 39]: 30 min
AUC0-last [11, 40]: 3280 ng·h/g
Cmax [11, 40]: 1490 ng/g
Tmax [11, 40]: 30 min
AUC0-last [11, 41]: 4760 ng·h/g
Cmax [11, 41]: 3370 ng/g
Tmax [11, 41]: 30 min
intrinsic clearance CLint(hep) ([12]; cryopreserved cynomolgus monkey hepatocytes, 37.0°C, 120 min): < 1.9 μL/min/10^6 cells
half-life ([12]; cryopreserved cynomolgus monkey hepatocytes, 37.0°C, 120 min, LC-MS/MS): > 372.7 min
hepatic clearance CLint(liver) ([12]; scaled from cynomolgus monkey hepatocytes): < 6.7 mL/min/kg
